Measured values: ChEMBL document CHEMBL1145099, “Aloisines, a new family of CDK/GSK-3 inhibitors. SAR study, crystal structure in complex with CDK2, enzyme selectivity, and cellular effects” (J Med Chem, 2003)

Assays:
Casein kinase II = Casein kinase II (Homo sapiens, UniProt P19784+P67870+P68400); test: Inhibition of Casein kinase II; assay type: protein-complex assay
[1] = molecular target: T1, Serine/threonine-protein kinase D1 (Homo sapiens, UniProt Q15139); test: Inhibition of Protein kinase C mu
T1 sequence (Q15139 whole entry): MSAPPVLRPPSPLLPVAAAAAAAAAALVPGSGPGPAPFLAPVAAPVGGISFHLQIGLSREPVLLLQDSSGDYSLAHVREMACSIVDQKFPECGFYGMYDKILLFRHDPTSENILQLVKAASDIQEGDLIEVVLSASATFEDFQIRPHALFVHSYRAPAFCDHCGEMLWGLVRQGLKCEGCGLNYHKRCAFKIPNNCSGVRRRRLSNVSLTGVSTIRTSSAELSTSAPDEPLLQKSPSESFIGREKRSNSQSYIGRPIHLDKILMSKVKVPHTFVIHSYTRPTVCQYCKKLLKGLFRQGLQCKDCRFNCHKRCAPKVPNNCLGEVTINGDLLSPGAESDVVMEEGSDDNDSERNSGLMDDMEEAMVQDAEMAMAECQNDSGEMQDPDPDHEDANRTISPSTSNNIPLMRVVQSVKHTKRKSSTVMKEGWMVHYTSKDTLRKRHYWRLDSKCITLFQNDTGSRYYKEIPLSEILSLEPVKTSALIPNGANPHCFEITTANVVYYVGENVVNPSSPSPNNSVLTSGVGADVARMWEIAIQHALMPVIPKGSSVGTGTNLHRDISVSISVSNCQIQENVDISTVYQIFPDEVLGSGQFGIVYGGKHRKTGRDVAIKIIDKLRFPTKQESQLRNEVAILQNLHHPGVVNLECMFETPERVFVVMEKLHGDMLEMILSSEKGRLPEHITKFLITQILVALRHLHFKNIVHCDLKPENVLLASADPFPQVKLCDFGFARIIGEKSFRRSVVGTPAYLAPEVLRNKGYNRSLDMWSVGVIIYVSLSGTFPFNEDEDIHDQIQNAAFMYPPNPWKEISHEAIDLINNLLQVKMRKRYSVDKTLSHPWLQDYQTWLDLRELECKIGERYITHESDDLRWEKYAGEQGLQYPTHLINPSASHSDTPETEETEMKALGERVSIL

[2] = molecular target: c-Jun N-terminal kinase, JNK (Homo sapiens, UniProt P45983+P53779+P45984); test: Inhibition of c-Jun N-terminal kinase; assay type: protein assay
[3] = Inhibition of cAMP dependent protein kinase, PKA
[4] = Inhibition of cGMP-dependent protein kinase
[5] = molecular target: Cyclin-dependent kinase 2/cyclin A (Homo sapiens, UniProt P24941); test: Inhibition of Cyclin-dependent kinase 2-cyclin A; assay type: protein-complex assay
[6] = molecular target: T2, Protein kinase C zeta type (Homo sapiens, UniProt Q05513); test: Inhibition of protein kinase C zeta
T2 sequence (Q05513 whole entry): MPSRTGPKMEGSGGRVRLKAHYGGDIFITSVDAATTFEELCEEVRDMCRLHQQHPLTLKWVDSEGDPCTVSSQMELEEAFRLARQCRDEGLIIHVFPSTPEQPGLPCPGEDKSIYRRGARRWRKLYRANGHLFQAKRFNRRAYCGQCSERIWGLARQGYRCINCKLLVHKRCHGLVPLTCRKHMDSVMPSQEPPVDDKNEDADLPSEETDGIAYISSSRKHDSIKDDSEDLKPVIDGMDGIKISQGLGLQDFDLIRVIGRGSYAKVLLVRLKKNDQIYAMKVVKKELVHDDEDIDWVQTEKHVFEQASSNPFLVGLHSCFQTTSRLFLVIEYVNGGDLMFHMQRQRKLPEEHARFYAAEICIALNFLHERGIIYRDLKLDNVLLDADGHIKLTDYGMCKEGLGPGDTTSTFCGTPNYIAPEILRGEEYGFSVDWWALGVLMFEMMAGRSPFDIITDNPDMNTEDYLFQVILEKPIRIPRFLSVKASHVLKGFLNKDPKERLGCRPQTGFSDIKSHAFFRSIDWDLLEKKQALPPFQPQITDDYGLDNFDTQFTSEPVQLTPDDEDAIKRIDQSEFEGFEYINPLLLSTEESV

[7] = molecular target: Serine/threonine-protein kinase pim-1 (Homo sapiens, UniProt P11309); test: Inhibition of Protein kinase PIM-1
Serine/threonine-protein kinase pim-1, sequence (P11309 whole entry): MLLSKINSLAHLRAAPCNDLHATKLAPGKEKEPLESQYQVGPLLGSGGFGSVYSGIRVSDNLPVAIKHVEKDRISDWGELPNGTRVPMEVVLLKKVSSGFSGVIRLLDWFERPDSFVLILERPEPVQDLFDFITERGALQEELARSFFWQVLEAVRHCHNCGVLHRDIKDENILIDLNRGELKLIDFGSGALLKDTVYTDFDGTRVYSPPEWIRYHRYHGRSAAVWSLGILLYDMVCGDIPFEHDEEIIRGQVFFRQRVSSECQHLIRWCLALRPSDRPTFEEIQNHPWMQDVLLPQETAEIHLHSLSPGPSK

[8] = molecular target: RAF proto-oncogene serine/threonine-protein kinase (Homo sapiens, UniProt P04049); test: Inhibition of RAF proto-oncogene serine/threonine-protein kinase (c-raf)
RAF proto-oncogene serine/threonine-protein kinase, sequence (P04049 whole entry): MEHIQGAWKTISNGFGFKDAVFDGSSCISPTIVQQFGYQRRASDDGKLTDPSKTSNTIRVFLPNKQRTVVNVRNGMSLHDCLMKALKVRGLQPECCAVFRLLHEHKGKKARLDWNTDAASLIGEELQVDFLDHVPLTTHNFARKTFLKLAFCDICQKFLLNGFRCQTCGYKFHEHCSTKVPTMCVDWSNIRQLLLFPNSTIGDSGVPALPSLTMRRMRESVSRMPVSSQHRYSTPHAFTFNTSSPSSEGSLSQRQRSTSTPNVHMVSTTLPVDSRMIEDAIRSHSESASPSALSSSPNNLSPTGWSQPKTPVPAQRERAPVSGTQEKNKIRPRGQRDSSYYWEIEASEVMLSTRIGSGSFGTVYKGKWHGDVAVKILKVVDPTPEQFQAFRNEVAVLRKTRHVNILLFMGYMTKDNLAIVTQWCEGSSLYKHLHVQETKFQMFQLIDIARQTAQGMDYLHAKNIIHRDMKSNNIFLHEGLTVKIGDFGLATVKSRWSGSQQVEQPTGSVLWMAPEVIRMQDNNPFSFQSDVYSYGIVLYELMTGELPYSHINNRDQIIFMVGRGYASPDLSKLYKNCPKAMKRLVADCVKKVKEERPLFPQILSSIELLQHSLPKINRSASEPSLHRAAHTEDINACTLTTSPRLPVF

[9] = molecular target: T3, Protein kinase C epsilon type (Homo sapiens, UniProt Q02156); test: Inhibition of protein kinase C epsilon
T3 sequence (Q02156 whole entry): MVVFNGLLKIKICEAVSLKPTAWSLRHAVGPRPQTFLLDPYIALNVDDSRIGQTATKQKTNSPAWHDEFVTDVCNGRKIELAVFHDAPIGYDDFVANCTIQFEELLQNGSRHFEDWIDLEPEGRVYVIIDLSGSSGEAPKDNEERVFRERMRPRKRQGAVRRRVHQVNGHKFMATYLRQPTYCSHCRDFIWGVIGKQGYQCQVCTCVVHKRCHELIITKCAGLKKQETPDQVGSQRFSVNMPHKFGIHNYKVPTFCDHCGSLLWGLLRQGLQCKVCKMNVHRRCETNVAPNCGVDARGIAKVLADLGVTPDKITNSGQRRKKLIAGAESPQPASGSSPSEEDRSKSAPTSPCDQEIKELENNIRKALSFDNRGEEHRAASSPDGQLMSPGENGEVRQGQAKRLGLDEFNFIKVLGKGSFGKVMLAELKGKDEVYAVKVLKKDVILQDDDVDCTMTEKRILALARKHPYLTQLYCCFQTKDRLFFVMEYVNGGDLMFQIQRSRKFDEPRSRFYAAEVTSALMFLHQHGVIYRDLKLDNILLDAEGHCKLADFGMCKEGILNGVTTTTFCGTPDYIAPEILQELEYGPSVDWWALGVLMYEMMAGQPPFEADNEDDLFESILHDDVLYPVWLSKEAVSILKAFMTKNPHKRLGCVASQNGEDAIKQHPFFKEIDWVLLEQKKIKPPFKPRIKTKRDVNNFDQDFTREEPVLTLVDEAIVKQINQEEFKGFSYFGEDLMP

Casein kinase I = test: Inhibition of Casein kinase I; assay type: protein assay
[10] = molecular target: Dual specificity mitogen-activated protein kinase kinase; MEK1/2 (Homo sapiens, UniProt P36507+Q02750); test: Inhibition of Mitogen activated protein kinase kinase; assay type: protein assay
[11] = molecular target: Protein kinase C delta type (Homo sapiens, UniProt Q05655); test: Inhibition of protein kinase C delta
[12] = molecular target: Protein kinase C beta type (Homo sapiens, UniProt P05771); test: Inhibition of Protein kinase C beta
Protein kinase C beta type, sequence (P05771 whole entry): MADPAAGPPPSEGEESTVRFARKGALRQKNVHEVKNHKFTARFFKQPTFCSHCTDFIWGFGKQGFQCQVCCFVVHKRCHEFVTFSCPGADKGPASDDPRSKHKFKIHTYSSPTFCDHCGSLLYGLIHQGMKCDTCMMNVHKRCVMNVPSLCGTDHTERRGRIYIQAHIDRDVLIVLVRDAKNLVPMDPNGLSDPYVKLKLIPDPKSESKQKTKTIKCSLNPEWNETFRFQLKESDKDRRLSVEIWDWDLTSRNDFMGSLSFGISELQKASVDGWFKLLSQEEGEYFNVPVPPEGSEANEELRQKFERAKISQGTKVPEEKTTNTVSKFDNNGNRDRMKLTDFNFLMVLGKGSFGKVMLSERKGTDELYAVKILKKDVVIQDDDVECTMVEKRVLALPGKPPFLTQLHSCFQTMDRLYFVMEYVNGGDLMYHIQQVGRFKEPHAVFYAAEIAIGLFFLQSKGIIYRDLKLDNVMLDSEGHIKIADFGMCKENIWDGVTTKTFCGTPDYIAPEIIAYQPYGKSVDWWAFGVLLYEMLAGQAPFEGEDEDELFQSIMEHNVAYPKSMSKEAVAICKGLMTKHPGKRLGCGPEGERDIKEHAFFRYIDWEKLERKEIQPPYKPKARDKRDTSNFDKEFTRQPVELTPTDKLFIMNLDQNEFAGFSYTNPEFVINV

[13] = molecular target: Protein kinase C gamma type (Homo sapiens, UniProt P05129); test: Inhibition of Protein kinase C gamma
[14] = molecular target: Protein kinase C alpha type (Homo sapiens, UniProt P17252); test: Inhibition of protein kinase C alpha
[15] = molecular target: Cyclin-dependent kinase 2/cyclin E (Homo sapiens, UniProt P24941); test: Inhibition of Cyclin-dependent kinase 2-cyclin E; assay type: protein-complex assay
[16] = molecular target: Cyclin-dependent kinase 4/cyclin D1 (Homo sapiens, UniProt P11802); test: Inhibition of Cyclin-dependent kinase 4-cyclin D1
Cyclin-dependent kinase 4/cyclin D1, sequence (P11802 whole entry): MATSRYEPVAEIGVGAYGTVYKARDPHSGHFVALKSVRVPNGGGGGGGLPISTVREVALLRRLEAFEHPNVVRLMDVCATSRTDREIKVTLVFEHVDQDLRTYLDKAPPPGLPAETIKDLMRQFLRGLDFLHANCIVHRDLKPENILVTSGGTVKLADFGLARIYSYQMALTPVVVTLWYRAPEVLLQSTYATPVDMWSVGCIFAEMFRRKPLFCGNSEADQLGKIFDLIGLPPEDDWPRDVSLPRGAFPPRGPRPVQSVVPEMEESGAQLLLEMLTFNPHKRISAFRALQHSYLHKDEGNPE
Cyclin-dependent kinase 4/cyclin D1, sequence (P24385 whole entry, further chain): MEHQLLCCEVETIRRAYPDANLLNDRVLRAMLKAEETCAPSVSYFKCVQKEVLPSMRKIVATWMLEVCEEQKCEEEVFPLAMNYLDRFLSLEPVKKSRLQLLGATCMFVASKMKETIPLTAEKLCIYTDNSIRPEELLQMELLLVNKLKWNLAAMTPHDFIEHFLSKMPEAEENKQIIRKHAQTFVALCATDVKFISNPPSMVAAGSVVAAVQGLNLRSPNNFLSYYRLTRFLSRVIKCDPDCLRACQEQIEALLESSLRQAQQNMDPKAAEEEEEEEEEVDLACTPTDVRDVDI

Casein kinase II, sequence (P67870 whole entry): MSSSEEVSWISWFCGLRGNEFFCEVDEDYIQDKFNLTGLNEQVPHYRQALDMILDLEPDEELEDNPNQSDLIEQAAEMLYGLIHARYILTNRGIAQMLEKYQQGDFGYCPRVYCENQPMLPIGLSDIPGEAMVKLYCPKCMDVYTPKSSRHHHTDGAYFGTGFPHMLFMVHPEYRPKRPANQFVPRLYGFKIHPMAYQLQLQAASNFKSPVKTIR
Casein kinase II, sequence (P68400 whole entry): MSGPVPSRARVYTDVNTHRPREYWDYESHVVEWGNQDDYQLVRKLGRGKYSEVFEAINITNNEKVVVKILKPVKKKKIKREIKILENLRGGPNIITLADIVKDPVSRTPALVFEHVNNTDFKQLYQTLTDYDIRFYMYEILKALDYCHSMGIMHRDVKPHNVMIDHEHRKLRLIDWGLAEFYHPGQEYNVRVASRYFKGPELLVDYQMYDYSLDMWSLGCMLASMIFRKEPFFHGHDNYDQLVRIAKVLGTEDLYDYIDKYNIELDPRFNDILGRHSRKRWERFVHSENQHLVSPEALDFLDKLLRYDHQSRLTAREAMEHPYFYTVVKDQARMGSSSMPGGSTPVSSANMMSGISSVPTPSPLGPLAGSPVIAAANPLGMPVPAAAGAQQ
Casein kinase II, sequence (P19784 whole entry): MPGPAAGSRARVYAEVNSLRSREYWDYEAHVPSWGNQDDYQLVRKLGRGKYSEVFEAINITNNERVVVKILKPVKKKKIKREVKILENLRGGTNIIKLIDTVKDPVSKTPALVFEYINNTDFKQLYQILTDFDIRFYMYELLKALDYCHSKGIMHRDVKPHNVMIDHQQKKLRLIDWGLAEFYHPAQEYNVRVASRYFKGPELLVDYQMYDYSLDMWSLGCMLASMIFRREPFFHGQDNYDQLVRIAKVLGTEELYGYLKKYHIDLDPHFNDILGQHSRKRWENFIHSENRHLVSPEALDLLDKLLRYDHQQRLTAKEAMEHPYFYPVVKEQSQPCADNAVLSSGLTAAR

IC50 (Casein kinase II): > 100 µM
IC50 [1]: > 100 µM
IC50 [2]: 3.3 µM
IC50 [3]: 100 µM
IC50 [4]: 100 µM
IC50 [5]: 120 nM
IC50 [6]: > 100 µM
IC50 [7]: > 10 µM
IC50 [8]: > 100 µM
IC50 [9]: > 100 µM
IC50 (Casein kinase I): > 100 µM
IC50 [10]: > 100 µM
IC50 [11]: > 100 µM
IC50 [12]: > 100 µM
IC50 [13]: > 100 µM
IC50 [14]: > 100 µM
IC50 [15]: 400 nM
IC50 [16]: > 100 µM
SMILES: CCCCc1c(-c2ccc(O)cc2)[nH]c2nccnc12 [ALOISINE A]
